Values quoted from earlier work, collected in patent publication US7311392B2, “Inkjet recording ink and method of inkjet recording” (Fujifilm Corporation, priority 2002, dated 2007).

Details: 20° C.; water-miscible organic solvent of the ink

| Vapor Pressure [Pa] | Structure (SMILES) |
| --- | --- |
| 1013 (20° C.) Pa | COCC(C)O (centres unmarked) [Compound 1-Methoxy-2-propanol, 1-Methoxy-2-propanol] |
| 0.3 (20° C.) Pa | OCC(O)CO [Glycerin] |
| <1.3 (20° C.) Pa | CCCCOCCOCCOCCO [Triethylene glycol monobutyl ether] |

| Structure (SMILES) | Vapor Pressure [Pa] |
| --- | --- |
| CC(C)O [Compound 2-Propanol, 2-Propanol] | 4320 (20° C.) Pa |
| OCCOCCO [Diethylene glycol] | <1.3 (20° C.) Pa |
